Experimental data taken from patent US20090196829A1, “MRI CONTRAST AGENTS AND RELATED METHODS OF USE” (Northwestern University, priority 2008, published 2009).
Several values for one entry are separate records, joined by “and”; a condition that tells them apart may be missing. Identical values can stand only once.

What was measured:
[1] = at 64 MHz; cited from earlier work
[2] = T1 measurement and relaxivity of agents in solution, MR phantoms at 4.7T, 200 MHz; format: physicochemical; details: nanopure water, per Gd
Protocol: In experiments conducted during the course of development of the present invention, MR phantoms were imaged using a 4.7T, 200 MHz Bruker Biospec MR Imager with decreasing concentrations of 5, 6 and Gd-DOTA as indicated in FIG. 2A. T1 measurements were obtained and relaxivities were calculated for each compound using the T1 data. Relaxivities for 5, 6 and Gd-DOTA were calculated to be 5.3, 5.1, and 1.0 mM^−1 s^−1 at 200 MHz respectively. At high magnetic field strengths there remained a 5 fold increase in relaxivity per Gd(III) which indicated a 31-37 fold increase in molecular relaxivity.
6, 5 and DOTA-Gd were dissolved in nanopure water at decreasing concentrations and imaged in 1 mm capillary tubes. Concentrations (μM) were as follows from left to right for 6 (73.3, 54.9, 36.6, 22.0, 11.0, 0.0) for 5 (82.1, 61.6, 41.0, 24.6, 12.3, 0.0) and for DOTA-Gd (82.7, 62.0, 41.4, 24.8, 12.4, 0.0). T1 weighted (TR/TE=300/18.3 ms) spin-echo images were acquired at 200 MHz. […]
T1 values were determined using the following equation.
Where SI is the measured signal intensity for each TR, S0 is the signal intensity at infinity.
Relaxivities for each compound were calculated using the T1 data and gadolinium concentrations as determined by ICP-MS analysis. […]

NIH-3T3 cells = assay: T1 measurement from T1 weighted cell pellet images of labeled cells; format: cell-based, mouse; details: NIH-3T3 cell pellets, 4 hours incubation
Protocol: In experiments conducted during the course of development of the present invention, 5 and 6 were used to label cells for MR imaging at equal molar concentrations of Gd(III) (FIG. 2B). […] NIH-3T3 cells were incubated for 4 hours at 37° C. and 5% CO2 in complete media containing 5, 6, and Gd-DOTA. The cells were rinsed 3 times in phosphate buffered saline and pelleted in 1 mm capillary tubes. Unlabeled cell pellets were used as a control. T1 values measured for 5, 6, Gd-DOTA and the control cell pellet were 2067.7, 2178.4, 3009.4, and 3480.3 msec respectively. […] Cell studies were done using NIH-3T3 cells cultured in Dulbecco's Modified Eagle's Media supplemented in 10% calf bovine serum and incubated at 37° C., 5% CO2. Cells were incubated with approximately equimolar concentrations of Gd for 4 hours in a 6 well plate. The cells were rinsed 2× with PBS and trypsinized. In 1.5 mL tubes, the cells were fixed for 15 min in 10% buffered neutral formalin and rinsed 2× in PBS. The cells were then pelleted in flame sealed 1 mm capillary tubes. T1 weighted (TR/TE=800/18.3 ms) spin-echo images were acquired at 200 MHz. T1 measurements were obtained by collecting a series of images using a standard spin-echo sequence with a TE of […] and a series of TR (91.5, 200, 300, 400, 500, 750, 1200, 2500, 5000, 10000), 6 signal averages, FOV 2×2 cm, collected into a matrix of 256×128.

SMILES: CNC[C@H](O)[C@@H](O)[C@H](O)[C@H](O)CO.O=C([O-])CN1CCN(CC(=O)[O-])CCN(CC(=O)O)CCN(CC(=O)[O-])CC1.[Gd+3] [Dotarem]
- relaxivity [1]: 3.4 mM⁻¹ s⁻¹

SMILES: O=C([O-])CN1CCN(CC(=O)[O-])CCN(CC(=O)O)CCN(CC(=O)[O-])CC1.[Gd+3] [Gd-DOTA]
- Relaxivity (linear regression of 1/T1 vs. Gd concentration) [2]: 1.0 mM⁻¹ s⁻¹
- T1 (NIH-3T3 cells; approximately equimolar Gd(III) (7.80, 8.95, 9.00 mM Gd), 200 MHz): 3009.4 ms and 3009.44 ms
- % difference from control (T1) (NIH-3T3 cells; vs unlabeled control pellet): 13.53%
